# Measurements: patent US20070249686A1, “Modulators of Crth-2 Receptor Activity for the Treatment of Prostaglandin D2 Mediated Diseases” (ASTRAZENECA AB, priority 2004, published 2007)
# pIC50: −log10 of the molar value.
# Target: T1, CRTh2 (Homo sapiens, UniProt Q9Y5Y4)
# T1 construct: expressed in transfected cells; host or cells: HEK cells (membrane preparation)
# T1 sequence (Q9Y5Y4 1-395): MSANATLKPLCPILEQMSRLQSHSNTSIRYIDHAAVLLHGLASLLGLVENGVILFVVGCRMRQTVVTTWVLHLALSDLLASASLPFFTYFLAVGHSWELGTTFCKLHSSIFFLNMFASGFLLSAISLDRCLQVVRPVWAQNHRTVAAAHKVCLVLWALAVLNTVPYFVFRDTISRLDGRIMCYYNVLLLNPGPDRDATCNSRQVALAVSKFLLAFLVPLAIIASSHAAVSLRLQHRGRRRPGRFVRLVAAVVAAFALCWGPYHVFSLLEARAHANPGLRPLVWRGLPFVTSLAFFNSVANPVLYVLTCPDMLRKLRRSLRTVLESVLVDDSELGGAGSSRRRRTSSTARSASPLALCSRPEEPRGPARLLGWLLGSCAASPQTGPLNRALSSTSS
# Assay: Ligand binding assay: [3H]PGD2 binding to membranes of HEK cells expressing rhCRTh2/Gα16 (SPA beads)
# Details: [3H]PGD2 displacement, HEK cell membranes containing CRTh2, SPA, 2 hours at room temperature
# Method: [hu 3H]PGD2 was purchased from Perkin Elmer Life Sciences with a specific activity of 100-210 Ci/mmol. All other chemicals were of analytical grade.
# HEK cells expressing rhCRTh2/Gα16 were routinely maintained in DMEM containing 10% Foetal Bovine Serum (HyClone), 1 mg/ml geneticin, 2 mM L-glutamine and 1% non-essential amino acids. For the preparation of membranes, the adherent transfected HEKcells were grown to confluence in two layer tissue culture factories (Fisher, catalogue number TKT-170-070E). Maximal levels of receptor expression were induced by addition of […] sodium butyrate for the last 18 hours of culture. The adherent cells were washed once with phosphate buffered saline (PBS, 50 ml per cell factory) and detached by the addition of 50 ml per cell factory of ice-cold membrane homogenisation buffer [20 mM HEPES (pH 7.4), 0.1 mM dithiothreitol, 1 mM EDTA, 0.1 mM phenyl methyl sulphonyl fluoride and 100 μg/ml bacitracin]. […] The final pellet was re-suspended in 4 ml of membrane homogenisation buffer per cell factory used and the protein content determined. […]
# All assays were performed in Corning clear bottomed, white 96-well NBS plates (Fisher). […] (The optimum coating concentrations were determined for each batch of membranes) The beads were pelleted by centrifugation (800×g for 7minutes at 4° C.), washed once with assay buffer (50 mM HEPES pH 7.4 containing 5 mM magnesium chloride) and finally re-suspended in assay buffer at a bead concentration of 10 mg/ml.
# Each assay contained 20 μl of 6.25 nM [^3H]PGD2, 20 μl membrane saturated SPA beads both in assay buffer and 10 μl of compound solution or 13,14-dihydro-15-keto prostaglandin D2 (DK-PGD2, for determination of non-specific binding, Cayman chemical company). […] The assay plate was incubated at room temperature for 2 hours and counted on a Wallac Microbeta liquid scintillation counter (1 minute per well).
row,Compound,pIC50
1,"CCS(=O)(=O)c1ccc(-c2nc(C)ccc2OCC(=O)O)c(C)c1 [Example 11, ({2-[4-(Ethylsulfonyl)-2-methylphenyl]-6-methylpyridin-3-yl}oxy)acetic acid]",7.20
2,"Cc1nn(S(=O)(=O)N(C)C)cc1-c1cc(C(F)(F)F)ccc1O[C@@H](C)C(=O)O [Example 22, (2S)-2-[2-{1-[(Dimethylamino)sulfonyl]-3-methyl-1H-pyrazol-4-yl}-4-(trifluoromethyl)phenoxy]propanoic acid]",8.00
3,"CS(=O)(=O)c1ccc(-c2cc(C(F)(F)F)ccc2CCC(=O)O)cc1C(F)(F)F [Example 31, 3-[4′-(Methylsulfonyl)-3′,5-bis(trifluoromethyl)biphenyl-2-yl]propanoic acid]",7.40
